Data taken from paper PMC6207684, “Structural reorganization of SHP2 by oncogenic mutations and implications for oncoprotein resistance to allosteric inhibition” (Nature Communications, 2018).

Tests used:
wild-type U2OS cells = assay: Western blot pErk quantification; format: cell-based
Method: (§1) Lysis was visually confirmed with light microscopy, and lysates were added to gel loading buffer and run on Novex^TM wedgewell^TM 12% Tris-Glycine gels (Invitrogen XP00122) at 180 V for 1 h. Proteins were transferred from gels to polyvinylidene difluoride membranes using an iBlot 2 Dry Blotting System (Thermo Fisher IB21001). After transfer, membranes were blocked with either 5% bovine serum albumin or 5% nonfat milk in tris-buffered saline with tween (TBST) at room temperature for 1 h and then incubated with primary antibody (CST 9101 pErk at 1:500 dilution, CST 9102 Erk at 1:500 dilution, CST 3752 SHP2 at 1:300 dilution, or Sigma A1978 β-Actin at 1:3000 dilution) in respective blocking solution overnight at 4 °C, washed 3 × with TBST for 5 min, incubated with secondary antibody (ECL^TM Anti-Rabbit GE NA934V or Anti-Mouse GE NXA931V at 1:10,000 dilution) in respective blocking solution for 1 h at room temperature, and washed 3 x with TBST for 5 min. Following final wash, membranes were imaged on a GE Amersham Imager 600 using SuperSignal® West Pico Chemiluminescent Substrate (Pierce 34080). Linear brightness and contrast adjustments were applied uniformly across the entire image, and band densities were quantified using Fiji[24]. Western blot images are representative of at least two replicates, which were performed on different days.

PTPN11-null U2OS cells = assay: Western blot pErk quantification; format: cell-based; conditions: 2 h treatment
Source text: (§2) PTPN11−/−/− U2OS cells were generated using the methodology described by Zhang et al.[25]. In brief, CRISPR guides against the first three exons of the PTPN11 proto-oncogene were designed using the Sanger CRISPR database, cloned into the pSpCas9(BB)-2A-GFP vector, transfected into U2OS (ATCC® HTB-96^TM) cells using manufacturer-recommended Fugene®HD methodologies, and assayed for knockdown of SHP2 protein levels, via western blot, in bulk.
Lysis was visually confirmed with light microscopy, and lysates were added to gel loading buffer and run on Novex^TM wedgewell^TM 12% Tris-Glycine gels (Invitrogen XP00122) at 180 V for 1 h. Proteins were transferred from gels to polyvinylidene difluoride membranes using an iBlot 2 Dry Blotting System (Thermo Fisher IB21001). […] Linear brightness and contrast adjustments were applied uniformly across the entire image, and band densities were quantified using Fiji[24]. […]

[1] = test system: PTPN11-null U2OS cells expressing SHP2^D61V; assay: Western blot pErk quantification; format: cell-based; conditions: SHP2^D61V in PTPN11-null U2OS cells (other cancer mutants investigated)
Source text: as §2
(§3) Mammalian SHP2 expression plasmids were designed from pCMV-SHP2 WT, which was provided as a gift from Ben Neel (Addgene plasmid #8381), using site-directed mutagenesis (QuikChange, Agilent; see Supplementary Table 4 for the sequences of all primers used in this study). Mutation acquisition and plasmid identity were confirmed via DNA sequencing.
as §1

[2] = test system: PTPN11-null U2OS cells expressing SHP2^E76K; assay: Western blot pErk quantification; format: cell-based; conditions: SHP2^E76K in PTPN11-null U2OS cells (other cancer mutants investigated)
Source text: as §2, §3, §1

[3] = test system: PTPN11-null U2OS cells expressing SHP2^F285S; assay: Western blot pErk quantification; format: cell-based; conditions: read-out: IC50 for pErk reduction by SHP099; PTPN11-null U2OS cells harboring SHP2^F285S; 2 h treatment
Source text: as §2, §3, §1

[4] = test system: PTPN11-null U2OS cells expressing SHP2^G60V; assay: Western blot pErk quantification; format: cell-based; conditions: SHP2^G60V in PTPN11-null U2OS cells (other cancer mutants investigated)
Source text: as §2, §3, §1

[5] = test system: PTPN11-null U2OS cells expressing SHP2^S502P; assay: Western blot pErk quantification; format: cell-based; conditions: SHP2^S502P in PTPN11-null U2OS cells; 50 μM SHP099
Source text: as §2, §3, §1

[6] = test system: PTPN11-null U2OS cells re-expressing SHP2^WT; assay: Western blot pErk quantification; format: cell-based
Source text: as §2, §3, §1

U2OS cells = assay: pERK induction by EGF stimulation in serum-starved U2OS cells, western blot; format: cell-based; conditions: U2OS serum starved 48 hours; SHP099 10 µM for 2 hours; EGF 5 nM; lysed 10 min after stimulation
Method: or vehicle cont rol f or 2 hours, and t hen st imulat ed wit h EGF. Cells were lysed on ice 10 min
af t er st imulat ion, and pErklevels were analyzed by western blot. […]

wild-type SHP2 = test system: wild-type SHP2; design: method as in PMID 27362227; conditions: biochemical assays; cited from earlier work
[7] = test system: cancer cell lines that are dependent on receptor tyrosine kinases and wild-type SHP2; design: method as in PMID 27362227; conditions: cited from earlier work

IC50 (wild-type U2OS cells; read-out: IC50 for pErk reduction by SHP099, 2 h treatment, western blot densitometry): 2 ± 1 µM
IC50 [3]: 8 ± 2 µM
IC50 ([6]; read-out: IC50 for pErk reduction by SHP099, PTPN11-null cells re-expressing SHP2^WT, 2 h treatment, western blot densitometry): 4 ± 2 µM
Structure (SMILES): CC1(N)CCN(c2cnc(-c3cccc(Cl)c3Cl)c(N)n2)CC1 [SHP099]
pErk levels upon SHP099 treatment (western blot) (wild-type U2OS cells; 2 h treatment): dramatically reduces pErk levels
pErk levels upon SHP099 treatment (western blot) (PTPN11-null U2OS cells): unaffected
inhibition of Erk phosphorylation [1]: does not significantly inhibit Erk phosphorylation
inhibition of Erk phosphorylation [2]: does not significantly inhibit Erk phosphorylation
inhibition of Erk phosphorylation [4]: does not significantly inhibit Erk phosphorylation
loss of pErk [5]: little, if any, loss of pErk
reduction of pErk levels by SHP099 (incomplete, maximal) ([6]; SHP2^WT-rescued PTPN11-null U2OS cells): ~ 65%
pERK induction in response to EGF stimulation (U2OS cells): attenuated
affinity for wild-type SHP2 (wild-type SHP2): nanomolar affinity
antiproliferative activity [7]: antiproliferative activity
